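Each compound was tested at five concentrations against cells in 96-well plates for 48 hours. Definition used: TGI = concentration required for complete inhibition of growth.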 *1 amine or outer side, *2 acyl side, *3 side chain or, on linkers, in order; H or OH if unused. Where a SMILES comes first, the peptide text is derived from it. Bridges are numbered along the chain shown (N, C = ends). Roman numbers before positions name the chains, in order. [ ]: non-standard residue; d: D form. Actinocin(9to1) = Cc1c2oc3c(C)ccc(C(=O)[*:1])c3nc-2c(C(=O)[*:2])c(N)c1=O; Hyp = O=C(O)[CH]1C[CH](O)CN1; NMeV = CN[CH](C(=O)O)C(C)C; Sar = CNCC(=O)O
Legend:
Experiment in all cases: DTP human tumour cell line panel, 48 h
CCRF-CEM leukemia = system: CCRF-CEM leukemia
KM12 colon = system: KM12 colon
MDA-MB-231 breast = system: MDA-MB-231 breast
MDA-MB-435 = system: MDA-MB-435
PC-3 prostate = system: PC-3 prostate
SK-MEL-28 melanoma = system: SK-MEL-28 melanoma
SNB-19 CNS = system: SNB-19 CNS
SW-620 colon = system: SW-620 colon
TK-10 renal = system: TK-10 renal
U251 CNS = system: U251 CNS

SMILES	TGI (CCRF-CEM leukemia) [µM]	TGI (KM12 colon) [µM]	TGI (MDA-MB-231 breast) [µM]	TGI (MDA-MB-435) [µM]	TGI (PC-3 prostate) [µM]	TGI (SK-MEL-28 melanoma) [µM]	TGI (SNB-19 CNS) [µM]	TGI (SW-620 colon) [µM]	TGI (TK-10 renal) [µM]	TGI (U251 CNS) [µM]
C/C=C(\C)C(=O)O[C@@H]1CC(C)(C)CC2C3=CCC4[C@]56CC[C@](O)(OC5)C(C)(C)C6CC[C@@]4(C)C3(C)CC[C@]21C(=O)O (stereo not given in full)	> 100	> 100	> 100	> 100	> 100	> 100	> 100	> 100	> 100	> 100
Nc1ccc2ccc(N3CCNCC3)nc2n1	> 100	> 100	> 100	> 100	> 100	> 100	> 100	> 100	> 100	> 100
C=CCOC(OCC=C)/C(Br)=C/C	> 100	> 100	> 100	> 100	> 100	> 100	> 100	> 100	> 100	> 100
CCCCCCCCP(=O)(O)OP(=O)(O)OCC1OC(n2ccc(N)nc2=O)C(O)C1O (stereo not given)	> 100	> 100	> 100	> 100	> 100	> 100	> 100	> 100	> 100	> 100
Cc1c2oc3c(C)ccc(C(=O)NC4C(=O)NC(C(C)C)C(=O)N5CC(O)CC5C(=O)N(C)CC(=O)N(C)C(C(C)C)C(=O)OC4C)c3nc-2c(C(=O)NC2C(=O)NC(C(C)C)C(=O)N3CC(O)CC3C(=O)N(C)CC(=O)N(C)C(C(C)C)C(=O)OC2C)c(N)c1=O (stereo not given) (I: TV[Hyp][Sar][NMeV] / II: TV[Hyp][Sar][NMeV]; ester I:1-I:C, II:1-II:C; linker I:N-II:N via Actinocin(9to1); configuration not given here)	> 1	> 1	> 1	> 1	> 1	> 1	> 1	> 1	> 1	> 1
